Assay results taken from patent publication US8241863B2, “Identification of an evolutionarily conserved pathway mediating transrepression of inflammatory response genes by nuclear receptors” (The Regents of the University of California, priority 2005, dated 2012).
“Also recorded” adds a separate entry of the source.

Assays:
iNOS promoter [1] = assay: iNOS-luciferase reporter transrepression in RAW264.7 cells transfected with PPARγ; assay type: cell-based, mouse
Source text: For transrepression experiments, wild-type PPARγ or PPARγ mutants were transfected at a 3:1 ratio to reporter plasmids using Superfect reagent (Qiagen). […] Transfection experiments evaluated each experimental condition in triplicate and results were expressed as mean +/− standard deviation. Each transfection experiment was independently repeated at least three times. Statistical analysis was preformed using Student's t-test with P<0.01 considered statistically significant.
In FIG. 1b, RAW264.7 cells were transfected with the indicated siRNAs and PPARγ expression and iNOS-luciferase reporter plasmids. Cells were treated with LPS and/or Ro as in panel a prior to assay of luciferase activity. […] In FIG. 1d, RAW264.7 cells were transfected with the indicated siRNAs and PPARγ expression and iNOS-luciferase reporter plasmids. Cells were treated with LPS and/or Ro as in FIG. 1a, prior to assay of luciferase activity. […] In FIG. 1f, RAW264.7 cells were transfected with the indicated siRNAs and PPARγ expression and iNOS-luciferase reporter plasmids and stimulated with LPS for 6 h prior to assay of luciferase activity.
In FIG. 4a, RAW264.7 cells were transfected with the iNOS reporter, PPARγ expression plasmid and Ubc9-siRNA. 36 h post-transfection cells were pretreated with Ro for 1 h and LPS for 6 h prior to assay of luciferase activity. […]

PPARγ [2] = target: T1, PPARγ (Mus musculus, UniProt P37238); assay: Transactivation assay on positively regulated PPARγ-dependent promoter (Aox-TK luciferase) in RAW264.7 cells; assay type: cell-based
T1 construct: expressed in transfected cells; host or cells: RAW264.7 mouse macrophage cell line
T1 sequence (P37238 1-475 isoform P37238-2): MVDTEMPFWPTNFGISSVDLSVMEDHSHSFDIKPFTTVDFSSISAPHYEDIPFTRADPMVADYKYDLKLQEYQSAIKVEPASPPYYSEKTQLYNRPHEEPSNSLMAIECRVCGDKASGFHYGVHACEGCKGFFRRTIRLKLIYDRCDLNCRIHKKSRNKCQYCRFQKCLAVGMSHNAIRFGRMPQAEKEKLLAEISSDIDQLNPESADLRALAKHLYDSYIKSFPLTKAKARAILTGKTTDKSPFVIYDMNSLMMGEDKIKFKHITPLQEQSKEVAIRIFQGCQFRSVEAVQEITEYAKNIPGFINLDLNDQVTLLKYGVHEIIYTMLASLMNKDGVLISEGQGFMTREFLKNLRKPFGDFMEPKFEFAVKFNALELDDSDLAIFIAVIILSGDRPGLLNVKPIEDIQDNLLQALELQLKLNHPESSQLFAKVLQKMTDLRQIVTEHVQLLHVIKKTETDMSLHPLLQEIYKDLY
Method: The RAW264.7 mouse macrophage cell line was transiently transfected with plasmids containing the iNOS or Aox-TK promoters directing luciferase expression as previously described 22. For transrepression experiments, wild-type PPARγ or PPARγ mutants were transfected at a 3:1 ratio to reporter plasmids using Superfect reagent (Qiagen). For siRNA experiments, RAW264.7 cells were transfected with siRNAs (40 nM) using Superfect reagent for 48 h prior to activation with PPARγ ligands and LPS induction. […] Transfection experiments evaluated each experimental condition in triplicate and results were expressed as mean +/− standard deviation. Each transfection experiment was independently repeated at least three times. Statistical analysis was preformed using Student's t-test with P<0.01 considered statistically significant.
In FIG. 5b, in vivo detection of SUMOylation of PPARγ was performed in HeLa cells transfected with myc-tagged Sumo1 and HA-tagged WT-PPARγ or PPARγ^K365R. Cells were immunoprecipitated for HA tag and blotted for myc tag. NT refers to non-transfected cells. In FIG. 5c, RAW264.7 cells were transfected with wild-type (WT) and mutant HA-PPARγ and Flag(FL)-tagged PIAS1 expression plasmids and treated with Ro for 0, 10, 30 or 60 min. Whole cell extracts were immunoprecipitated for HA tag followed by western blotting for FL-PIAS1. […]

iNOS gene [3] = assay: iNOS expression in LPS-treated primary peritoneal macrophages by real-time PCR, LXR ligands; assay type: cell-based, mouse; details: for repression of iNOS activation: oxysterols 5 μM, LPS, 6 h, less potently than GW3965 1 μM where active (FIG. 14 upper)
Method: Thioglycollate-elicited macrophages were isolated by peritoneal lavage 3 days following peritoneal injection of 2.5 ml 3% thioglycollate (DIFCO). Cells were plated in RPMI medium 1640 and 10% fetal bovine serum. After 5 h the medium was removed and cells were fed with fresh medium. For RNAi experiments, smart-pool siRNAs (Dharmacon) against NCoR and Ubc9 were transfected into primary macrophages using lipofectamine 2000 (Invitrogen), incubated for 48 h and validated by Q-PCR and Western Blotting. LPS (Sigma) was used at a concentration of 1 μg/ml and GW3965 (obtained under MTA from GlaxoSmithKline) was used at a concentration of 1 μM.
Total RNA (isolated by RNeasy kit, Qiagen) was prepared from primary macrophages pretreated with 1 μM GW3965 (2 h) before 1 μg/ml LPS stimulation (6 h). One microgram of total RNA was used for CDNA synthesis, and 1 μl of cDNA was used for real time PCR using iNOS or inflammatory-gene-specific primers.
(§1) Macrophages were transfected with siRNA for 48 h and then stimulated with LPS ([…]) for 6 h in the absence or presence of LXR ligand (GW3965, 1 μM). iNOS expression in peritoneal macrophages was evaluated by real-time quantitative PCR and iNOS promoter activation in RAW264.7 was evaluated by luciferase assay. […] Primary macrophages were treated with LPS ([…]) with or without the LXR ligand (GW3965, 1 μM) for 1 h.
(§2) Primary mouse peritoneal macrophages were treated in the upper panel with LPS and the indicated ligands and harvested for real time PCR analysis of iNOS expression 6 h later. In the lower panel, cells were treated with the indicated ligands for 18 hours and harvest for real time PCR analysis of ABCA1 expression. GW3965 was used at a concentration of 1 μM. The oxysterols were used at a concentration of 5 μM.

ABCA1 gene = assay: ABCA1 expression in primary macrophages by real-time PCR; assay type: cell-based, mouse; details: oxysterols 5 μM, 18 hours; less potently than GW3965 1 μM for the first three (FIG. 14 lower)
Method: as §2

iNOS promoter [4] = assay: ChIP for LXR and NCoR on the iNOS promoter in primary macrophages, LXR ligand; assay type: cell-based, mouse
Method: For each experimental condition, 20×10^6 primary macrophages were used. Cells were pre-treated with 1 μM GW3965 (1 h) and stimulated with 1 μg/ml LPS (1 h) before crosslinking for 10 min with 1% formaldehyde. Crosslinked adducts were resuspended and sonicated resulting in DNA fragments of 300-900 bp. Anti-LXR (Calbiochem) or anti-NCoR (Affinity Bioreagents) antibodies were used. Protein-bound, immunoprecipitated DNA was reverse cross-linked at 65° C. overnight and then purified using PCR purification Kit (Qiagen). A 150-bp region of the iNOS promoter was amplified by real time PCR spanning the most proximal NF-κB site to the start of transcription.
as §1

iNOS promoter [5] = assay: iNOS-luciferase reporter in RAW264.7 cells transfected with LXRα; assay type: cell-based, mouse; details: RAW264.7, LXRα
Method: The RAW264.7 mouse macrophage cell line was transiently transfected with iNOS or ABCA1 promoters directing luciferase expression, pCMXhLYRα, FLAGhLXRβ, and their mutants. For transrepression experiments, wildtype LXRα and LXRβ or LXR mutants were transfected at a 3:1 (LXR to reporter plasmid) ratio using Superfect reagent (Qiagen). For siRNA experiments, RAW264.7 cells were transfected with siRNAs (40 nM) using Superfect reagent for 48 h before activation with LXR ligands and LPS induction. […]
Macrophages were transfected with siRNA for 48 h and then stimulated with LPS ([…]) for 6 h in the absence or presence of LXR ligand (GW3965, 1 μM). iNOS expression in peritoneal macrophages was evaluated by real-time quantitative PCR and iNOS promoter activation in RAW264.7 was evaluated by luciferase assay. […]

[6] = tested on: Ccl3, Ccl7, Cxcl10 and Tgtp; assay: Microarray analysis of primary macrophages treated with LPS with or without PPARγ agonist; assay type: cell-based, mouse; details: LPS (FIG. 2e)
Method: In FIG. 2a, CHIP analysis of NCoR and Ubc5 occupancy on the iNOS promoter was performed in primary macrophages stimulated with LPS for the indicated times in the presence or absence of Ro. In FIG. 2b, Semi-quantitative RT-PCR analysis of iNOS and GAPDH mRNA in primary macrophages. Cells were treated with Ro 1 h before (pre) or 1 h following (post) stimulation with LPS. RNA was isolated for analysis 6 h after LPS treatment. In FIG. 2c, ChIP analysis for p65 and PPARγ on iNOS and CD36 promoters in primary macrophages was performed as described in FIG. 2a. In FIG. 2d, ChIP analysis of the iNOS promoter for NCoR and PPARγ was carried out in primary macrophages 1 h following LPS stimulation. Ro was given 1 h before (pre) or 1 h after (post) stimulation. Cells were transfected with control or NCoR-specific siRNAs 48 h prior to LPS stimulation. In FIG. 2e, Expression data derived from microarray analysis of primary macrophages treated with LPS in the presence or absence of the PPARγ-specific agonist GW7845. In FIG. 2f, ChIP analysis for NCoR and PPARγ on the indicated promoters was carried out using primary macrophages as in 2d.

PPARγ [7] = target: T2, PPARγ (Homo sapiens, UniProt P37231); details: cited from earlier work
T2 sequence (P37231 1-505): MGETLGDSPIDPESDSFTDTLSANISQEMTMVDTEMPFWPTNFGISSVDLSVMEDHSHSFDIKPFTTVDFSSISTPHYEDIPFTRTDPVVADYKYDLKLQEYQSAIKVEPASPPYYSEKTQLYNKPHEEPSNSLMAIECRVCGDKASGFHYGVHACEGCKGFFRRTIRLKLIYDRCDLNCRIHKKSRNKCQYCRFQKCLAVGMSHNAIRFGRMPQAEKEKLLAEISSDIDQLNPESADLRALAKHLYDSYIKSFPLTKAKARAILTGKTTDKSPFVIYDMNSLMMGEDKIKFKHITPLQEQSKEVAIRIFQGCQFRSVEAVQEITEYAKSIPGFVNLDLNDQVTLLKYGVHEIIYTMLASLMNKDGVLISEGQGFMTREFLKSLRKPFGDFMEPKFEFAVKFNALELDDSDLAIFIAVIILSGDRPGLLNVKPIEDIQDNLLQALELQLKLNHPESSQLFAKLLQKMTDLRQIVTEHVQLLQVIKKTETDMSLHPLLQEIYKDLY

iNOS promoter [8] = assay: Chromatin immunoprecipitation on the iNOS promoter in primary macrophages or RAW 264.7 cells; assay type: cell-based, mouse; details: primary macrophages, ligand 1 h then LPS 1 h (FIG. 1e)
Method: 2-4×10^6 primary macrophages or RAW 264.7 cells were used per experimental point. Cells were pre-treated with 1 μM Ro (1 h) and stimulated with 1 μg/ml LPS (1 h). Cross-linking was carried out for 10 min with 1% formaldehyde and cells lysed with 1% SDS, 10 mM EDTA, 50 mM Tris-HCl pH 8.1 and sonicated 10 sec-5 times. Five μg antibody conjugated to sheep anti-rabbit dyna-beads (Dyna1) were used for immunoprecipitations. For PPARγ, 2 μg of H-100 plus 3 μg of PPARγ antibody from Geneka were used in combination. Alternatively, anti-HA protein A sepharose beads (Covance) were used for wild-type and mutant HA-tagged PPARγ proteins. HDAC3 and p65 antibodies were from SantaCruz. NCoR antibody was from Affinity Bioreagents, Inc. Beads were washed twice with wash buffer: 150 mM NaCl, 0.1% SDS, 1% Triton X-100, 2 mM EDTA, 20 mM Tris-HCl and subsequently with buffer: 0.25 M LiCl, 1% NP-40, 1% deoxycholate, 1 mM EDTA, 10 mM Tris-HCl. Beads were eluted in 300 μl of TE with 1% SDS and 0.1 M NaCO3. Elute samples and 10% inputs were reversed at 65° C. for a minimum of 6 h. […]
In FIG. 1e, primary macrophages were pretreated with Ro or GW0072 for 1 h followed by 1 h LPS induction and formaldehyde crosslinking. A 150 base pair region of the iNOS promoter spanning the most proximal NF-κB site to the start of transcription was analyzed by ChIP assays using the indicated antibodies.

iNOS gene [9] = assay: iNOS mRNA in LPS-stimulated primary macrophages (Northern blot / semi-quantitative RT-PCR), PPARγ ligands; assay type: cell-based, mouse; details: as little as 10 nM Trichostatin A 1 h, then 1 μM Ro 2 h, LPS 6 h (FIG. 1c)
Method: Primary macrophages were elicited by intra-peritoneal injection with 2 ml of thioglycollate. […] For RNAi experiments, smart-pool siRNAs (Dharmacon) against PIAS1, Ubc9, HDAC3, HDAC7 or control non-specific and previously validated NCoR were transected using lipofectamine 2000 (Invitrogen) into primary macrophages and incubated for 48 h.
Total RNA (Trizol method) was prepared from thioglycollate-elicited primary macrophages pre-treated with 1 μM Ro (2 h) prior to 1 μg/ml LPS stimulation (6 h). One μg of total RNA was used for cDNA synthesis using the First-strand synthesis RT system (Invitrogen). Two μl of cDNA was used for PCR using iNOS or inflammatory gene specific primers amplifying a 0.7 kb region of cDNA. GAPDH cDNA samples were carried out for 22 to 25 cycles. […]
Total RNA was analyzed for iNOS and GAPDH mRNA by Northern Blotting. […] Cells were stimulated with LPS for 6 h and total RNA was analyzed as in FIG. 1a. […] A 150 base pair region of the iNOS promoter spanning the most proximal NF-κB site to the start of transcription was analyzed by ChIP assays using the indicated antibodies. […]
In FIG. 2a, CHIP analysis of NCoR and Ubc5 occupancy on the iNOS promoter was performed in primary macrophages stimulated with LPS for the indicated times in the presence or absence of Ro. In FIG. 2b, Semi-quantitative RT-PCR analysis of iNOS and GAPDH mRNA in primary macrophages. […]

With CN(CCOc1ccc(C[C@H](Nc2ccccc2C(=O)c2ccccc2)C(=O)O)cc1)c1ccccn1 [GW1929] the “repression of LPS induced iNOS promoter activity” value (iNOS promoter [1]) was “very weak repressor” and the transactivation activity (PPARγ [2]) was “strong transactivation activity”.
For CC(C)C(O)CC[C@@H](C)[C@H]1CC[C@H]2[C@@H]3CC=C4C[C@@H](O)CC[C@]4(C)[C@H]3CC[C@]12C (some centres unmarked) [24-hydroxycholesterol], the “repression of iNOS activation” value (iNOS gene [3]) was “repress iNOS activation” and the “induction of ABCA1 expression” value (ABCA1 gene) was “induce ABCA1 expression”.
With O=C(O)Cc1cccc(OCCCN(Cc2cccc(C(F)(F)F)c2Cl)CC(c2ccccc2)c2ccccc2)c1 [GW3965] the “effect of NCoR-specific siRNA on ligand-dependent repression of LPS-induced iNOS expression” value (iNOS gene [3]; peritoneal macrophages, GW3965 1 μM, LPS 1 mg/ml 6 h (FIG. 10A)) was “abolishes”, the “effect of Ubc9-specific siRNA on ligand-dependent repression of LPS-induced iNOS expression” value (iNOS gene [3]; peritoneal macrophages, GW3965 1 μM, LPS 1 mg/ml 6 h (FIG. 11A)) was “significantly impairs” and the “LXR recruitment on the iNOS promoter” value (iNOS promoter [4]; GW3965 1 μM, LPS 1 h (FIG. 10C)) was “ligand-dependent and NCoR-dependent LXR recruitment”. For the same compound, the “LPS-stimulated release of NCoR from the iNOS promoter” value (iNOS promoter [4]; peritoneal macrophages, GW3965 1 μM (FIG. 10D)) was “inhibits”, the “effect of NCoR-specific siRNA on ligand-dependent repression of iNOS promoter activation” value (iNOS promoter [5]; GW3965 1 μM (FIG. 10B)) was “abolishes” and the “effect of Ubc9-specific siRNA on ligand-dependent repression of iNOS promoter activation” value (iNOS promoter [5]; GW3965 1 µM (FIG. 11B)) was “significantly impairs”.
With COC(=O)c1ccccc1N[C@@H](Cc1ccc(OCCc2nc(-c3ccccc3)oc2C)cc1)C(=O)O [GW7845] the “effect on LPS induction of Ccl3, Ccl7, Cxcl10 and Tgtp” value [6] was “repression of the LPS response”.
With C[C@H](CC[C@@H]1OC1(C)C)[C@H]1CC[C@H]2[C@@H]3CC=C4C[C@@H](O)CC[C@]4(C)[C@H]3CC[C@]12C [24(S), 25-epoxycholesterol] the “repression of iNOS activation” value (iNOS gene [3]) was “repress iNOS activation” and the “induction of ABCA1 expression” value (ABCA1 gene) was “induce ABCA1 expression”.
For CCCCCCCC1SC(CC(=O)N(Cc2ccccc2)Cc2ccccc2)C(=O)N1CCCCc1ccc(C(=O)O)cc1 (centres unmarked) [GW0072], the “dissociation of NCoR from PPARγ” value (PPARγ [7]) is given as “effective at dissociating NCoR from PPARγ; also recorded: disrupts direct interactions between NCoR and PPARγ”, the “stimulation of interactions with nuclear receptor coactivators” value (PPARγ [7]) is given as “only weakly stimulates” and the “NCoR and HDAC3 occupancy of iNOS promoter after LPS stimulation” value (iNOS promoter [8]) is given as “both NCoR and HDAC3 remained on the iNOS promoter”.
With CC(/C=C/C(=O)NO)=C\[C@@H](C)C(=O)c1ccc(N(C)C)cc1 [Trichostatin A] the “effect on rosiglitazone-dependent transrepression of iNOS” value (iNOS gene [9]) was “reversed rosiglitazone-dependent transrepression of iNOS”.
With C[C@@H](CO)CCC[C@@H](C)[C@H]1CC[C@H]2[C@@H]3CC=C4C[C@@H](O)CC[C@]4(C)[C@H]3CC[C@]12C [27-hydroxycholesterol] the “repression of iNOS activation” value (iNOS gene [3]) was “do not repress iNOS activation” and the “induction of ABCA1 expression” value (ABCA1 gene) was “activate ABCA1”.
For C[C@H](CCCC(C)(C)O)[C@H]1CC[C@H]2[C@@H]3CC=C4C[C@@H](O)CC[C@]4(C)[C@H]3CC[C@]12C [25 hydroxycholesterol], the “repression of iNOS activation” value (iNOS gene [3]) was “do not repress iNOS activation” and the “induction of ABCA1 expression” value (ABCA1 gene) was “activate ABCA1”.
With CC(C)CC[C@@H](O)[C@@H](C)[C@H]1CC[C@H]2[C@@H]3CC=C4C[C@@H](O)CC[C@]4(C)[C@H]3CC[C@]12C [22R-hydroxycholesterol] the “repression of iNOS activation” value (iNOS gene [3]) was “repress iNOS activation” and the “induction of ABCA1 expression” value (ABCA1 gene) was “induce ABCA1 expression”.
